Measured values: US20230285570A1, “THERAPEUTICALLY USEFUL CURE-PRO MOLECULES FOR E3 LIGASE MEDIATED DEGRADATION OF PROTEINS, AND METHODS OF MAKING AND USING THEM” (CORNELL UNIVERSITY, priority 2020, published 2023)
Entries after “also recorded” stand apart in the source; their conditions may differ.

System: MV-4-11 cells
Assay: CellTiter-Glo cell viability, MV-4-11 cells
Assay type: cell-based
Conditions: cotreated 1:1 with each of CRBN ligands 8046, 8047 and 8066, MV-4-11, 72 h, 10 nM-100 μM
Procedure, shortened: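 Viability by CellTiter-Glo luminescence. One protocol: 5×10^4 MV-4-11 cells, 24 h, compounds at 1 nM-100 μM each; other: 1×10^4 cells, 72 h, 10 nM-100 μM each. BRD ligands combined 1:1 with CRBN ligands; dose-response curves fitted.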

CCNC(=O)C[C@@H]1N=C(c2ccc(Cl)cc2)c2cc(OCCCCC(=O)Nc3cccc(B(O)O)c3)ccc2-n2c(C)nnc21 [BRD-E20, (3-(5-(((4S)-6-(4-chlorophenyl)-4-(2-(ethylamino)-2-oxoethyl)-1-methyl-4H-benzo[f][1,2,4]triazolo[4,3-a][1,4]diazepin-8-yl)oxy)pentanamido)phenyl)boronic acid]
loss of cellular viability (toxicity) versus monomers alone: reduced viability; also recorded: increased toxicity
